Source: ChEMBL document CHEMBL1142208, “Protection of mice from lethal Escherichia coli infection by chimeric human bactericidal/permeability-increasing protein and immunoglobulin G1 Fc gene delivery” (2007)

Key:
Mus musculus [1] = assay: Survival rate of BALB/c mouse infected with Escherichia coli O111:B4 at 25 ug, im within 48 hrs; assay type: functional
Mus musculus [2] = assay: Mortality rate of BALB/c mouse infected with Escherichia coli O111:B4 at 25 ug, im within 48 hrs; assay type: functional

Compound: CO/N=C(\C(=O)N[C@@H]1C(=O)N2C(C(=O)O)=C(COC(N)=O)CS[C@H]12)c1ccco1 [CEFUROXIME]
- Survival (Mus musculus [1]): 5%
- Survival (Mus musculus [2]): 91.4%
